Assay results taken from the NIST ThermoML archive (doi:10.1016/j.fluid.2014.07.010).
Numbers after ± are expanded uncertainties.

Conditions: Liquid, Ebulliometric method (Recirculating still)

SMILES	vapor or sublimation pressure (407.15 K) [kPa]	vapor or sublimation pressure (398.57 K) [kPa]
CCc1cccs1 [2-ethylthiophene]	101.33 ± 0.46	
CCCCCCCC [octane]		101.33 ± 0.46
